Like-named read-outs stand apart in the source and are kept apart here. No end group written: not given here.
Assays:
rodents = conditions: augmentation of salivary PYY(3-36); cited from earlier work
mice = conditions: cited from earlier work; for effect on 1-hour food intake: augmentation of salivary peptide; for reduction of caloric intake as compared to controls / caloric intake: mice; for reduction of caloric intake as compared to controls: salivary augmentation; for caloric intake: vehicle 4.10±0.04 kcal
[1] = system: subjects with BMIs of 30 to 40 kg/m^2; experiment: Dose-escalation clinical trial, feeling of fullness assessed by VAS after lunch; assay type: in vivo, human
Experimental: An exemplary clinical trial was performed as a dose-escalation design trial. Approximately twelve evaluable subjects (n˜12) with BMIs of 30 to 40 kg/m^2 received a single dose of placebo followed by study drug (PYY(3-36) also known as GT-001) applied directly to the surface of the lingual mucosa with a disposable pipette followed by a one-day washout. A total of seven (7) doses was escalated to a dose of 2.5 mg/ml.
The dose can be prepared, for example, from a stock solution of 2.5 mg/ml PYY(3-36).
Subjects who complete all screening procedures and meet all inclusion and exclusion criteria described within the protocol and found to be eligible for study enrollment checked into the Study Unit (i.e., the study facility). The morning of the study, participants fasted prior to arriving at the SU. Participants fasted for at least 12 hours prior to Day 1 of the study. Participants were permitted to only drink water prior to arrival to SU and were able to brush their teeth. The following assessments and measurements were taken: • (1) Inspection of the lingual mucosa. • (2) Updating medical and medication history prior to placebo application. • (3) Assessing health status. If participant has either rhinitis or gastrointestinal distress, the participant will be discontinued for that day. • (4) Measuring body weight and BMI. • (5) Measuring vital signs (BP, HR, and body temperature). BP and HR were measured twice in the sitting position and twice in the standing position. If BP was high at baseline sitting (>160 systolic), BP was re-checked after participant was sitting for 5-10 min. Body temperature was measured once. • (6) Performing urine drug screen, urine cotinine test, alcohol breath test, and urine pregnancy test. • (7) Subjects provided a 325-400 calorie breakfast and calorie intake was recorded. • (8) Water was provided “ad-libitum” and volume recorded. • (9) Four (4) hours post breakfast, the VAS for Appetite and Satiety was performed. • (10) Inserting a cannula to obtain blood samples, obtaining a 5 ml blood sample, and screening for anti-GT-001 antibodies. • (11) Obtaining a fasting PK blood sample #1 (5 ml) 15 minutes prior to placebo. • (12) Performing a water mouthwash prior to dosing with GT-001. The mouthwash can be a rinse with 20 ml of water. • (13) Giving one milliliter (1 ml) of placebo (formulation without GT-001) to the participant to the tongue via pipette 5 minutes before lunch. • (14) The solution remained on the tongue for 1 minute followed by asking participants to swish and then swallow. • (15) Completing a VAS for like-lines (VAS completed by subjects). • (16) Collecting PK blood samples after each of seven doses at ±1 minute at 5, 10, 15, 30, and ±5 minutes at 60, 120, and 240 minutes post dose. • (17) Isolating subjects from other subjects during lunch. • (18) Provided a “ad-libitum” lunch (composed of a casserole, nutrient drink and two (2) cookies) and recording calorie intake. • (19) Having subjects complete VAS questionnaire for sweetness, sourness, bitterness, saltiness, umami, and fat taste 20 minutes after completing the meals. • (20) Recording VAS for appetite and satiety every 30 minutes for 2 hours after completing the meal. • (21) Discharging subjects. Subjects ate “at-libitum” until the 12-hour fasting period preceding the next study visit. • (22) During the SU visit, subjects were restricted from ingesting gum, candy, tobacco, carbonated drinks, and from performing exercise. During the meal, subjects were not exposed to food cues (visual, odor, or hearing) and they should eat in isolation.
Days 2, 4, 6, 8, 10, 12 and 14 treatment days are the same as day 1.
The following exemplary VAS Assessment was given to subjects to assess their feeling of fullness before and after receiving PYY(3-36) or placebo and before or after eating at various doses described herein. […]

[2] = PYY concentration in plasma after lingual administration followed by lunch; assay type: in vivo, human; conditions: 0.25 mg/ml and 2.5 mg/ml, each followed by lunch; up to 4 hours after administration
Experimental: As shown, administering the placebo followed by food consumption induces the known and expected endogenous production of PYY resulting from food consumption peaking at approximately 20 pg/ml above pre-dose levels at 1-2 hours post-administration.
Subjects who complete all screening procedures and meet all inclusion and exclusion criteria described within the protocol and found to be eligible for study enrollment checked into the Study Unit (i.e., the study facility). The morning of the study, participants fasted prior to arriving at the SU. Participants fasted for at least 12 hours prior to Day 1 of the study. […] BP and HR were measured twice in the sitting position and twice in the standing position. […] Body temperature was measured once. • (6) Performing urine drug screen, urine cotinine test, alcohol breath test, and urine pregnancy test. • (7) Subjects provided a 325-400 calorie breakfast and calorie intake was recorded. • (8) Water was provided “ad-libitum” and volume recorded. • (9) Four (4) hours post breakfast, the VAS for Appetite and Satiety was performed. • (10) Inserting a cannula to obtain blood samples, obtaining a 5 ml blood sample, and screening for anti-GT-001 antibodies. • (11) Obtaining a fasting PK blood sample #1 (5 ml) 15 minutes prior to placebo. • (12) Performing a water mouthwash prior to dosing with GT-001. […]

Substance	taste aversion (rodents)	effect on 1-hour food intake (mice)	reduction of caloric intake as compared to controls (mice; 0.3 μg/100 g) [%]	caloric intake (mice; 0.3 μg/100 g, p=0.01) [kcal]	reduction of caloric intake as compared to controls (mice; 3 μg/100 g) [%]	caloric intake (mice; 3 μg/100 g, p=0.008) [kcal]	reduction of caloric intake as compared to controls (mice; 10 μg/100 g) [%]	caloric intake (mice; 10 μg/100 g, p=1.81E-06) [kcal]	feeling of fullness, VAS score (FIG. 1) ([1]; dose 25 ng applied to the tongue, 120 minutes post-lunch, 12 subjects, significantly above placebo level)	feeling of fullness, VAS score (FIG. 2) ([1]; dose 25 ng, up to 60 minutes post-lunch)	feeling of fullness, VAS score (FIG. 1) ([1]; dose 2.5 μg applied to the tongue, post-lunch, 12 subjects)	feeling of fullness, VAS score (FIG. 2) ([1]; dose 25 μg, maintained out to 120 minutes post-lunch)	feeling of fullness, VAS scale (FIG. 1) ([1]; dose 250 μg applied to the tongue, post-lunch, 12 subjects)	feeling of fullness, VAS score (FIG. 2) ([1]; dose 250 μg, maintained out to 120 minutes post-lunch)	level of PYY in plasma versus placebo/meal combination (FIG. 3) [2]
PYY(3-36)	does not cause taste aversion	decrease	16	3.44 ± 0.06	26	3.01 ± 0.06	42	2.36 ± 0.05	7	about 8	increases	8	about 8	8	does not raise the level of PYY in plasma above levels induced by the placebo/meal combination
amylin (KCNTATCATQRLANFLVHSSNNFGAILSSTNVGSNTY; not fully specified (C-terminus, bridges); cysteine pairing not given here; UniProt P10997 34-70, looked up) [peptide tested by salivary augmentation for comparison, reference compound]	–	no effect	–	–	–	–	–	–	–	–	–	–	–	–	–
neuropeptide Y [reference compound]	–	no effect	–	–	–	–	–	–	–	–	–	–	–	–	–

Reference: patent US11911445B2, “Peptide YY pharmaceutical formulations, compositions, and methods” (Gila Therapeutics, Inc., priority 2018, dated 2024)
